These are literature values, as cited in EP2166560A1, “Maldi matrices” (Max-Planck-Gesellschaft zur Förderung der Wissenschaften …, priority 2008, dated 2010).

For this series the following is noted: representative medium strong acid.

With `CCCCCCCCCCCCCCCCCC(=O)O` [stearic acid], the pK is given as 10.15.
